Patent US20220050096A1, “ANALYTE-SENSITIVE PROBES AND CONTACT LENS FOR DIAGNOSIS OF OCULAR PATHOLOGIES” (University Of Maryland, Baltimore, priority 2020, published 2022)

Experiment: Sodium-dependent intensity decays of SG in 20 mM MOPS buffer, 8 mM KCl
Assay type: physicochemical
Design: key to α1 / α2 / α3 / f1 / f2 / f3: fractional amplitudes (α) and intensity fractions (f); Σαi=1.0, Σfi=1.0
Protocol: Fluorescence Spectroscopic Measurements. Fluorescence intensities and intensity decays were measured using a Varian™ Eclipse 4 spectrofluorometer and a FluoTime300 instrument from PicoQuant™ (Berlin, Germany) and analyzed with the EasyTau™ software. The excitation source was a 473 nm laser diode with a repetition rate of 40 MHZ and a pulse width less than 100 ps. In other embodiments, the excitation source for SG-PL was at 495 nm from a Solea™ supercontinuum laser (PicoQuant™, Germany) and a 375 nm laser diode (PDL 375, PicoQuant™), a repetition rate of 40 MHz, and a pulse width less than 100 ps. Some intensity and lifetime measurements for SG-PL (as indicated) were performed using Alba V confocal fluorescence lifetime microscopy, FLIM (ISS, Urbana, Ill.), with excitation source of a 473 nm laser diode with a repetition rate of 40 MHz and a pulse width near 250 ps.
Intensity decays were measured at the emission maximum with the band of 10 to 20 nm, analyzed in terms of the multi-exponential model:
I(t)=Σαi exp(−t/ti) (equation 1)
where ti are the individual decay times and αi the initial time-zero amplitudes. The mean decay time can be represented in two ways. The average lifetime is given by:
where Σαi=1.0 and Σfi=1.0. The term fi=αi τi is proportional to the fractional contribution of each component to the total intensity decay. The term τi/Σαi τi is the fractional contribution to the steady state emission. Here, we use the amplitude-weighted lifetime given by
which is appropriate when the emission is from a single fluorophore with a changing quantum yield. For a single exponential decay, the lifetime is given by τ=1.0/(knr+Γ) and the quantum yield is given by Q=Γ/(knr+Γ) where knr is the sum of all non-radiative decay rates and Γ is the radiative decay rate. The value of Γ is determined by the molecular extinction coefficient that remains constant under most conditions. For a single type of fluorophore with a constant value of Γ the normalized αi values represent the molecular fraction of each decay time component. The value of αi and τi were determined by non-linear least squares fitting using PicoQuant™ software.
Three decay time components were required for the intensity decays. Fluorescence anisotropy decays were determined by individual measurements of the polarized intensity decays with corrections for the G-factor. Resolution of multi-exponential decays is not necessary. The average lifetime can be used as a single measurement. […]

[1] = NaCl 0 mM, 20 mM MOPS buffer 8 mM KCl
[2] = NaCl 5 mM, 20 mM MOPS buffer 8 mM KCl
[3] = NaCl 10 mM, 20 mM MOPS buffer 8 mM KCl
[4] = NaCl 20 mM, 20 mM MOPS buffer 8 mM KCl
[5] = NaCl 30 mM, 20 mM MOPS buffer 8 mM KCl
[6] = NaCl 50 mM, 20 mM MOPS buffer 8 mM KCl
[7] = NaCl 90 mM, 20 mM MOPS buffer 8 mM KCl
[8] = NaCl 150 mM, 20 mM MOPS buffer 8 mM KCl
[9] = NaCl 210 mM, 20 mM MOPS buffer 8 mM KCl

## COc1cc(N2CCOCCOCCN(c3cc(OC)c(NC(=O)c4ccc(-c5c6cc(Cl)c(=O)cc-6oc6cc([O-])c(Cl)cc56)c(C(=O)[O-])c4)cc3OC)CCOCC2)c(OC)cc1NC(=O)c1ccc(-c2c3cc(Cl)c(=O)cc-3oc3cc([O-])c(Cl)cc23)c(C(=O)[O-])c1.C[N+](C)(C)C.C[N+](C)(C)C.C[N+](C)(C)C.C[N+](C)(C)C [SG]
NaCl 0 mM, MOPS buffer
  f1: 0.272
  f2: 0.174
  f3: 0.554
  α1: 0.703
  α2: 0.155
  α3: 0.142
  τ1: 0.36 ns
  τ2: 1.03 ns
  τ3: 3.59 ns
  τf: 2.27 ns
  τα: 0.92 ns
[1]
  f1: 0.272
  f2: 0.174
  f3: 0.554
  α1: 0.703
  α2: 0.155
  α3: 0.142
  τ1: 0.36 ns
  τ2: 1.03 ns
  τ3: 3.59 ns
  τf: 2.27 ns
  τα: 0.92 ns
NaCl 5 mM, MOPS buffer
  f1: 0.111
  f2: 0.223
  f3: 0.666
  α1: 0.439
  α2: 0.244
  α3: 0.317
  τ1: 0.39 ns
  τ2: 1.44 ns
  τ3: 3.28 ns
  τf: 2.55 ns
  τα: 1.57 ns
[2]
  f1: 0.111
  f2: 0.223
  f3: 0.666
  α1: 0.439
  α2: 0.244
  α3: 0.317
  τ1: 0.39 ns
  τ2: 1.44 ns
  τ3: 3.28 ns
  τf: 2.55 ns
  τα: 1.57 ns
NaCl 10 mM, MOPS buffer
  f1: 0.078
  f2: 0.224
  f3: 0.699
  α1: 0.341
  α2: 0.276
  α3: 0.383
  τ1: 0.40 ns
  τ2: 1.43 ns
  τ3: 3.22 ns
  τf: 2.60 ns
  τα: 1.77 ns
[3]
  f1: 0.078
  f2: 0.224
  f3: 0.699
  α1: 0.341
  α2: 0.276
  α3: 0.383
  τ1: 0.40 ns
  τ2: 1.43 ns
  τ3: 3.22 ns
  τf: 2.60 ns
  τα: 1.77 ns
NaCl 20 mM, MOPS buffer
  f1: 0.094
  f2: 0.355
  f3: 0.551
  α1: 0.324
  α2: 0.353
  α3: 0.323
  τ1: 0.57 ns
  τ2: 2.00 ns
  τ3: 3.39 ns
  τf: 2.63 ns
  τα: 1.99 ns
[4]
  f1: 0.094
  f2: 0.355
  f3: 0.551
  α1: 0.324
  α2: 0.353
  α3: 0.323
  τ1: 0.57 ns
  τ2: 2.00 ns
  τ3: 3.39 ns
  τf: 2.63 ns
  τα: 1.99 ns
NaCl 30 mM, MOPS buffer
  f1: 0.068
  f2: 0.295
  f3: 0.638
  α1: 0.255
  α2: 0.349
  α3: 0.396
  τ1: 0.54 ns
  τ2: 1.72 ns
  τ3: 3.27 ns
  τf: 2.63 ns
  τα: 2.03 ns
[5]
  f1: 0.068
  f2: 0.295
  f3: 0.638
  α1: 0.255
  α2: 0.349
  α3: 0.396
  τ1: 0.54 ns
  τ2: 1.72 ns
  τ3: 3.27 ns
  τf: 2.63 ns
  τα: 2.03 ns
NaCl 50 mM, MOPS buffer
  f1: 0.081
  f2: 0.349
  f3: 0.570
  α1: 0.259
  α2: 0.380
  α3: 0.361
  τ1: 0.66 ns
  τ2: 1.95 ns
  τ3: 3.35 ns
  τf: 2.64 ns
  τα: 2.12 ns
[6]
  f1: 0.081
  f2: 0.349
  f3: 0.570
  α1: 0.259
  α2: 0.380
  α3: 0.361
  τ1: 0.66 ns
  τ2: 1.95 ns
  τ3: 3.35 ns
  τf: 2.64 ns
  τα: 2.12 ns
NaCl 90 mM, MOPS buffer
  f1: 0.074
  f2: 0.380
  f3: 0.545
  α1: 0.242
  α2: 0.416
  α3: 0.342
  τ1: 0.64 ns
  τ2: 1.93 ns
  τ3: 3.36 ns
  τf: 2.61 ns
  τα: 2.11 ns
[7]
  f1: 0.074
  f2: 0.380
  f3: 0.545
  α1: 0.242
  α2: 0.416
  α3: 0.342
  τ1: 0.64 ns
  τ2: 1.93 ns
  τ3: 3.36 ns
  τf: 2.61 ns
  τα: 2.11 ns
NaCl 150 mM, MOPS buffer
  f1: 0.116
  f2: 0.699
  f3: 0.185
  α1: 0.305
  α2: 0.605
  α3: 0.091
  τ1: 0.81 ns
  τ2: 2.48 ns
  τ3: 4.38 ns
  τf: 2.64 ns
  τα: 2.15 ns
[8]
  f1: 0.116
  f2: 0.699
  f3: 0.185
  α1: 0.305
  α2: 0.605
  α3: 0.091
  τ1: 0.81 ns
  τ2: 2.48 ns
  τ3: 4.38 ns
  τf: 2.64 ns
  τα: 2.15 ns
NaCl 210 mM, MOPS buffer
  f1: 0.074
  f2: 0.377
  f3: 0.549
  α1: 0.224
  α2: 0.424
  α3: 0.352
  τ1: 0.70 ns
  τ2: 1.88 ns
  τ3: 3.29 ns
  τf: 2.57 ns
  τα: 2.12 ns
[9]
  f1: 0.074
  f2: 0.377
  f3: 0.549
  α1: 0.224
  α2: 0.424
  α3: 0.352
  τ1: 0.70 ns
  τ2: 1.88 ns
  τ3: 3.29 ns
  τf: 2.57 ns
  τα: 2.12 ns
